Literature values in article PMC9441020 (Journal of medicinal chemistry, 2022).

| Compound | inhibition of HIV-1 INST (HIV-1 INST) | inhibition of HCV NS5B (HCV NS5B) |
| --- | --- | --- |
| O=C(O)c1nc(-c2cccs2)nc(O)c1O [compound 10, 5-Hydroxy-6-oxo-2-(thiophen-2-yl)-1,6-dihydropyrimidine-4-carboxylic acid] | did not inhibit | effectively inhibiting |
| O=C(NCc1ccccc1)c1nc(-c2cccs2)nc(O)c1O [compound 11, N-Benzyl-5-hydroxy-6-oxo-2-(thiophen-2-yl)-1,6-dihydropyrimidine-4-carboxamide] | potently inhibited | without significantly inhibiting |
